Here are results for one compound from ChEMBL document CHEMBL2057088 (Bioorg Med Chem, 2012).

For test [1], the species on record is Rattus norvegicus. Put plainly: animal or person. Conditions: Wistar, Plasma, po, 24 h, read-out: INH.
Test [2] relates to Rattus norvegicus. Put plainly: Ex-vivo inhibition of DPP4 in po dosed Wistar rat plasma up to 24 hrs by fluorometry. The test is classed as functional, organism-based.

Regarding `O=C([C@@H]1C[C@H](N2CCN(c3cc(C(F)(F)F)nc4ccccc34)CC2)CN1)N1CCSC1`, in the test listed under Rattus norvegicus [1], the inhibition in vivo at 3 µmol/kg is over 40%. In the test on Rattus norvegicus [2], the inhibition entry is “Dose-dependent effect”.
